{"source": "patent US11639348B2", "about": "“Compositions and methods for neuraminidase detection and quantification” (priority 2018, dated 2023)", "key": {"NA activity of virus": {"tested_on": "NA activity of virus", "type": "biochemical"}, "[1]": {"target": "influenza N2 subtype neuraminidase from A/Hong Kong/1/68 (H3N2) (Influenza A virus, UniProt Q91MA2)", "sequence (Q91MA2 whole entry, looked up)": "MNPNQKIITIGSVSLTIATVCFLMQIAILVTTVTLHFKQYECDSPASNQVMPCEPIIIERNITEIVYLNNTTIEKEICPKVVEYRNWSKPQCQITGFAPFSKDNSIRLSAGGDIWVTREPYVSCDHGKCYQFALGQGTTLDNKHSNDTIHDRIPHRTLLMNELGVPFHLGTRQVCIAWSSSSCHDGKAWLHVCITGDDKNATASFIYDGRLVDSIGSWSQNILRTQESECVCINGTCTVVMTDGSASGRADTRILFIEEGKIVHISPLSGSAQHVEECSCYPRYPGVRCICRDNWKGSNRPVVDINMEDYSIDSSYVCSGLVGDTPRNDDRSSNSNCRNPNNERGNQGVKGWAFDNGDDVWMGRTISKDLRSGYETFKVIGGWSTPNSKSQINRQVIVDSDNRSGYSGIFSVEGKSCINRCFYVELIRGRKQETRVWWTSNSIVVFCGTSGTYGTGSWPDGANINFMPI", "type": "biochemical, influenza A/Hong Kong/1/68 (H3N2)", "settings": "pH 7.6"}, "[2]": {"target": "sialidase from Micromonospora viridifaciens (NedA) (Micromonospora viridifaciens, UniProt Q02834)", "sequence (Q02834 38-647)": "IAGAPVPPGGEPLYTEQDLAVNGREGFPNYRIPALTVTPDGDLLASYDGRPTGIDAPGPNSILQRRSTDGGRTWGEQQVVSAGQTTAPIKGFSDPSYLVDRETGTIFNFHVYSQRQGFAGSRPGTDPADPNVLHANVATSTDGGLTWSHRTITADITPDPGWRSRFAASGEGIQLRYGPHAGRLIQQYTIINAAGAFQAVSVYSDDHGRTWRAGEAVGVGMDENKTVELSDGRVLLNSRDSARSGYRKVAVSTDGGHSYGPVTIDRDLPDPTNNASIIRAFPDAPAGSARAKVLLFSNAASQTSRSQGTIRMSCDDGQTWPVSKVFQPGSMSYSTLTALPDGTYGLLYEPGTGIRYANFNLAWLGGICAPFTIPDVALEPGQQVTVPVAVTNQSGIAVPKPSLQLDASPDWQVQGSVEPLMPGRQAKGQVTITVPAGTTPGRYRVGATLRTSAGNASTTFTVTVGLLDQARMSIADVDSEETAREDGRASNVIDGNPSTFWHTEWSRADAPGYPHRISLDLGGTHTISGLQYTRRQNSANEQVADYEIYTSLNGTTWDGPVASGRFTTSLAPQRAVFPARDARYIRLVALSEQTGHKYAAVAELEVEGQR", "type": "biochemical"}, "[3]": {"target": "NA of A/WS/33 (H1N1) influenza virus (Influenza A virus, UniProt P03470)", "sequence (P03470 whole entry, looked up)": "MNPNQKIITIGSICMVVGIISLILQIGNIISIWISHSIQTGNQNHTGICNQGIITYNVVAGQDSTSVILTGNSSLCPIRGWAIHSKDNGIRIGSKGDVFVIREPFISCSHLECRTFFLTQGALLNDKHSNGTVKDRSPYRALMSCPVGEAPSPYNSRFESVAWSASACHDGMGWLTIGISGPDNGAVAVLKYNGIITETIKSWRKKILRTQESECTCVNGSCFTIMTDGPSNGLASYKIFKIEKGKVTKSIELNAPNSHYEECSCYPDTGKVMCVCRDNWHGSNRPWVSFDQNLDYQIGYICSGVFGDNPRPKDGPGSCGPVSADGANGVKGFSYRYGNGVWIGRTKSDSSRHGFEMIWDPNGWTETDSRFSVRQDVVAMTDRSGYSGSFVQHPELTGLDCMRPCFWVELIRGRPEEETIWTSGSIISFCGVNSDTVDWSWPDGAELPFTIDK", "type": "biochemical, influenza A/WS/33 (H1N1)"}, "influenza B NAs": {"tested_on": "influenza B NAs", "type": "biochemical"}, "[4]": {"tested_on": "A/California/07/2009 H1N1 NA", "type": "biochemical, influenza A/California/07/2009 H1N1", "settings": "pH 7.6"}, "B/Florida/04/2006 NA": {"tested_on": "B/Florida/04/2006 NA", "type": "biochemical, influenza B/Florida/04/2006", "settings": "pH 7.6"}, "influenza virus NAs": {"tested_on": "influenza virus NAs", "type": "biochemical"}, "[5]": {"tested_on": "A/Washington/10/2008 H1N1 NA", "type": "biochemical, influenza A/Washington/10/2008 H1N1", "settings": "pH 7.6"}, "[6]": {"tested_on": "A/Brisbane/59/2007 H1N1 NA", "type": "biochemical, influenza A/Brisbane/59/2007 H1N1", "settings": "pH 7.6"}, "B/Hong Kong/05/1972 NA": {"tested_on": "B/Hong Kong/05/1972 NA", "type": "biochemical, influenza B/Hong Kong/05/1972", "settings": "pH 7.6"}, "[7]": {"assay": "Spontaneous hydrolysis of stock solution"}, "[8]": {"tested_on": "CC(=O)NC1C(NC(=N)N)C(F)C(Oc2c(F)cc3c(C)cc(=O)oc3c2F)(C(=O)O)OC1[C@H](O)[C@H](O)CO", "assay": "purified protein, by the assay type", "settings": "pH 7.6; 30.0 °C"}}, "note": "“Also recorded” adds a separate entry of the source."}
{"compound": "nonyl phenoxypolyethoxylethanol [NP40]", "values": [{"measurement": "effect on NA activity compared to live virus", "setting": "NA activity of virus", "value": "did not affect the NA activity; also recorded: did not affect the NA activities"}]}
{"compound": "O=C1CCO1", "note": "[β-propiolactone]", "values": [{"measurement": "effect on NA activity compared to live virus", "setting": "NA activity of virus", "value": "significantly reduced NA activities; also recorded: dramatically reduced NA activities"}]}
{"compound": "CC(=O)NC1C(N)C(F)C(Oc2c(F)cc3c(C)cc(=O)oc3c2F)(C(=O)O)OC1[C@H](O)[C@H](O)CO", "note": "(stereo partly drawn) [compound 2, 5-Acetamido-4-amino-3-fluoro-3,4,5-trideoxy-2α-(4-methyl-6,8-difluoromethylumbelliferyl)-D-glycero-D-galactononulopyranosylnoic acid]", "values": [{"measurement": "burst and turnover on titration of N2", "setting": "[1]", "value": "produced a burst, but significant turnover was still observed"}]}
{"compound": "CC(=O)NC1C(NC(=N)N)C(F)C(Oc2c(F)cc3c(C)cc(=O)oc3c2F)(C(=O)O)OC1[C@H](O)[C@H](O)CO", "note": "(stereo partly drawn) [compound 3, 5-Acetamido-4-guanidine-3-fluoro-3,4,5-trideoxy-2α-(4-methyl-6,8-difluoromethylumbelliferyl)-D-glycero-D-galactononulopyranosylnoic acid]", "values": [{"measurement": "response on incubation with GH33 sialidase NedA", "setting": "[2]", "value": "no significant response"}, {"measurement": "NA concentration down to which reliable data are given", "setting": "[3]", "value": "approximately 200 pM"}, {"measurement": "burst, F2Mu released", "setting": "[3]", "value": 27, "unit": "nM"}, {"measurement": "initial concentration of NA in the original virus sample", "setting": "[3]", "value": 1.08, "unit": "µM"}, {"measurement": "time to inactivation", "setting": "influenza B NAs", "value": "within several seconds"}, {"measurement": "Km", "setting": "[4]", "value": 31.9, "unit": "µM"}, {"measurement": "kcat", "setting": "[4]", "value": 76.4, "unit": "s⁻¹"}, {"measurement": "Km", "setting": "B/Florida/04/2006 NA", "value": 28.6, "unit": "µM"}, {"measurement": "kcat", "setting": "B/Florida/04/2006 NA", "value": 26.7, "unit": "s⁻¹"}, {"measurement": "time to reach plateau of titration", "setting": "influenza virus NAs", "value": "about 30 min"}, {"measurement": "burst and turnover on titration of N2", "setting": "[1]", "value": "no detectable turnover at all, while a rapid initial burst was observed"}, {"measurement": "Km", "setting": "[5]", "value": 62.2, "unit": "µM"}, {"measurement": "kcat", "setting": "[5]", "value": 63.3, "unit": "s⁻¹"}, {"measurement": "Km", "setting": "[6]", "value": 41.1, "unit": "µM"}, {"measurement": "kcat", "setting": "[6]", "value": 32.6, "unit": "s⁻¹"}, {"measurement": "Km", "setting": "B/Hong Kong/05/1972 NA", "value": 29.6, "unit": "µM"}, {"measurement": "kcat", "setting": "B/Hong Kong/05/1972 NA", "value": 30.0, "unit": "s⁻¹"}]}
{"compound": "CC(=O)NC1C(O)C(F)C(Oc2c(F)cc3c(C)cc(=O)oc3c2F)(C(=O)O)OC1[C@H](O)[C@H](O)CO", "note": "(stereo partly drawn) [compound 1, 5-Acetamido-3-fluoro-3,5-dideoxy-2α-(4-methyl-6,8-difluoromethylumbelli-feryl)-D-glycero-D-galactononulopyranosylnoic Acid]", "values": [{"measurement": "NedA concentration down to which burst size vs concentration is linear", "setting": "[2]", "value": "≤ 0.7", "unit": "nM"}, {"measurement": "fluorescence response on titration of NedA (burst and turnover)", "setting": "[2]; pH 7.6", "value": "a classical burst phase of increased fluorescence was observed, followed by a steady-state phase"}, {"measurement": "stability of stock solution", "setting": "[7]", "value": "undergoes slow spontaneous hydrolysis"}, {"measurement": "burst and turnover on titration of N2", "setting": "[1]", "value": "a burst was indeed seen, but significant turnover was also observed"}]}
{"compound": "(Influenza A virus (A/Hong Kong/1/1968(H3N2)))", "values": [{"measurement": "Km", "setting": "[8]", "value": 45.6, "unit": "µM"}, {"measurement": "kcat", "setting": "[8]", "value": 76.7, "unit": "s⁻¹"}, {"measurement": "kcat/Km", "setting": "[8]", "value": "1.68e+06", "unit": "M⁻¹ s⁻¹"}]}
